Data on 7 compounds can be found in US10294202B2, “Pyrrolidinones as herbicides” (FMC Corporation, priority 2013, dated 2019).

One experiment deals with canarygrass. Description: Test D pre-/postemergence herbicide test. The format is in vivo, Phalaris minor. To be noted: for Plant response rating: Canarygrass, scale 0 to 100; for Plant response rating, Canarygrass: scale 0 to 100 (0 no effect, 100 complete control). The text has this:
Seeds of plant species selected from bluegrass (annual bluegrass, Poa annua), blackgrass (Alopecurus myosuroides), canarygrass (littleseed canarygrass, Phalaris minor), chickweed (common chickweed, Stellaria media), galium (catchweed bedstraw, Galium aparine), bromegrass, downy (downy bromegrass, Bromus tectorum), field poppy (Papaver rhoeas), field violet (Viola arvensis), foxtail, green (green foxtail, Setaria viridis), deadnettle (henbit deadnettle, Lamium amplexicaule), ryegrass, Italian (Italian ryegrass, Lolium multiflorum), kochia (Kochia scoparia), lambsquarters (Chenopodium album), oilseed rape (Brassica napus), pigweed (Amaranthus retroflexus), chamomile (scentless chamomile, Matricaria inodora), Russian thistle (Salsola kali), speedwell (bird's-eye speedwell, Veronica persica), barley, spring (spring barley, Hordeum vulgare), wheat, spring (spring wheat, Triticum aestivum), buckwheat, wild (wild buckwheat, Polygonum convolvulus), mustard, wild (wild mustard, Sinapis arvensis), oat, wild (wild oat, Avena fatua), radish, wild (wild radish, Raphanus raphanistrum), […]), barley, winter (winter barley, Hordeum vulgare), and wheat, winter (winter wheat, Triticum aestivum) were planted into a silt loam soil and treated preemergence with test chemicals formulated in a non-phytotoxic solvent mixture which included a surfactant. At the same time, these species were planted in pots containing Redi-Earth® planting medium (Scotts Company, 14111 Scottslawn Road, Marysville, Ohio 43041) comprising spaghnum peat moss, vermiculite, wetting agent and starter nutrients and treated with postemergence applications of the test chemicals formulated in the same manner. Plants ranged in height from 2 to 18 cm (1- to 4-leaf stage). Treated plants and controls were maintained in a controlled growth environment for 7 to 21 days after which time all species were compared to controls and visually evaluated. Plant response ratings, summarized in Table D, are based on a scale of 0 to 100 where 0 is no effect and 100 is complete control. A dash (-) response means no test result.

In the next experiment the test system is barley, winter. Description: Test D pre-/postemergence herbicide test. The class given is in vivo, Hordeum vulgare. To be noted: for Plant response rating: Barley, Winter, scale 0 to 100; for Plant response rating, Barley, Winter: scale 0 to 100 (0 no effect, 100 complete control). An outline of the steps: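 Visual injury score, 0 (no effect) to 100 (complete control), taken 7–21 d post-treatment against untreated controls. Application was preemergence in silt loam and postemergence at 1- to 4-leaf stage, using a surfactant-containing non-phytotoxic solvent formulation.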

The subject of the next experiment is bromegrass, downy. The experiment can be described thus: Test C pre-/postemergence herbicide test. The format is in vivo, Bromus tectorum. From the text: (§1) Seeds of plant species selected from blackgrass (Alopecurus myosuroides), ryegrass, Italian (Italian ryegrass, Lolium multiflorum), wheat (winter wheat, Triticum aestivum), galium (catchweed bedstraw, Galium aparine), corn (Zea mays), crabgrass, large (large crabgrass, Digitaria sanguinalis), foxtail, giant (giant foxtail, Setaria faberii), johnsongrass (Sorghum halepense), lambsquarters (Chenopodium album), morningglory (Ipomoea coccinea), nutsedge, yellow (yellow nutsedge, Cyperus esculentus), pigweed (Amaranthus retroflexus), ragweed (common ragweed, Ambrosia elatior), soybean (Glycine max), barnyardgrass (Echinochloa crus-galli), oilseed rape (Brassica napus), waterhemp (common waterhemp, Amaranthus rudis), kochia (Kochia scoparia), oat, wild (wild oat, Avena fatua), surinam grass (Brachiaria decumbens), foxtail, green (green foxtail, Setaria viridis), goosegrass (Eleusine indica), bromegrass, downy (downy bromegrass, Bromus tectorum), nightshade (eastern black nightshade, Solanum ptycanthum), cocklebur (common cocklebur, Xanthium strumarium), cupgrass, woolly (woolly cupgrass, Eriochloa villosa), bermudagrass (Cynodon dactylon), sunflower, (common oilseed sunflower, Helianthus annuus), Russian thistle (Salsola kali) and velvetleaf (Abutilon theophrasti) were planted into a blend of loam soil and sand and treated preemergence with test chemicals formulated in a non-phytotoxic solvent mixture which included a surfactant. At the same time, plants selected from these crop and weed species and also barley (winter barley, Hordeum vulgare), […]), chickweed (common chickweed, Stellaria media), deadnettle (henbit deadnettle, Lamium amplexicaule), and canarygrass (littleseed canarygrass, Phalaris minor) were planted in pots containing Redi-Earth® planting medium (Scotts Company, 14111 Scottslawn Road, Marysville, Ohio 43041) comprising spaghnum peat moss, vermiculite, wetting agent and starter nutrients and treated with postemergence applications of test chemicals formulated in the same manner. Plants ranged in height from 2 to 18 cm (1- to 4-leaf stage) for postemergence treatments. Treated plants and controls were maintained in a greenhouse for 13 to 15 days, after which time all species were compared to controls and visually evaluated. Plant response ratings, summarized in Table C, are based on a scale of 0 to 100 where 0 is no effect and 100 is complete control. A dash (-) response means no test result.

In the next experiment the test system is cocklebur. The experiment can be described thus: Test C pre-/postemergence herbicide test. The format is in vivo, Xanthium strumarium.
Description: as §1

Where [1] appears, read: Preemergence, 62 g ai/ha, scale 0 to 100.
Setting [2] is: Preemergence, 125 g ai/ha, scale 0 to 100 (0 no effect, 100 complete control).
Where [3] appears, read: Preemergence, 31 g ai/ha, scale 0 to 100 (0 no effect, 100 complete control).
[4] abbreviates: Preemergence, 250 g ai/ha, scale 0 to 100 (0 no effect, 100 complete control).
The mark [5] stands for this setting: Postemergence, 16 g ai/ha, scale 0 to 100 (0 no effect, 100 complete control).
Where [6] appears, read: Postemergence, 31 g ai/ha, scale 0 (no effect) to 100 (complete control).
Where [7] appears, read: Postemergence, 62 g ai/ha, scale 0 to 100 (0 no effect, 100 complete control).
[8] abbreviates: Postemergence, 125 g ai/ha, scale 0 to 100 (0 no effect, 100 complete control).
Where [9] appears, read: Preemergence, 16 g ai/ha, scale 0 to 100.
Setting [10] is: Preemergence, 31 g ai/ha, scale 0 to 100, 0 is no effect and 100 is complete control.

In the case of `O=C1NCC(c2ccc(F)c(F)c2)C1C(=O)Nc1ccccc1C(F)(F)F` (racemic) [Compound 6], the Plant response rating with canarygrass (Postemergence, 16 g ai/ha) amounted to 0; with canarygrass (Postemergence, 31 g ai/ha) it was 0; with canarygrass (Postemergence, 62 g ai/ha), 0; in the experiment on canarygrass (Postemergence, 125 g ai/ha) it was 0; in the experiment on canarygrass (Postemergence, 250 g ai/ha), 0; with canarygrass (Preemergence, 125 g ai/ha), 20. In addition, the Plant response rating was found to be 20 with canarygrass (Preemergence, 250 g ai/ha); 0 with barley, winter (Postemergence, 16 g ai/ha); 0 with barley, winter (Postemergence, 31 g ai/ha); 0 in the experiment with barley, winter (Postemergence, 62 g ai/ha); 0 in the experiment with barley, winter (Postemergence, 125 g ai/ha); 0 in the experiment with barley, winter (Postemergence, 250 g ai/ha). For the same compound, the Plant response rating is given as 0 in the experiment on barley, winter (Preemergence, 125 g ai/ha) and 20 in the experiment on barley, winter (Preemergence, 250 g ai/ha). Moreover, the “Plant response rating, Canarygrass” value in the experiment with canarygrass (Preemergence, 62 g ai/ha) was 10; with canarygrass (Preemergence, 16 g ai/ha), 0; in the experiment with canarygrass (Preemergence, 31 g ai/ha) it was 0. In addition, the “Plant response rating, Barley, Winter” value is 0 in the experiment with barley, winter (Preemergence, 62 g ai/ha); 0 in the experiment with barley, winter (Preemergence, 16 g ai/ha); 0 in the experiment on barley, winter (Preemergence, 31 g ai/ha).
For the compound `O=C1NCC(c2ccc(F)c(C(F)(F)F)c2)C1C(=O)Nc1cccc(F)c1F` (racemic) [Compound 77], the “Plant response rating, Canarygrass” value is given as 45 in the experiment with canarygrass (Preemergence, 62 g ai/ha) and 25 with canarygrass (Preemergence, 31 g ai/ha). Moreover, the Plant response rating is listed as 65 with canarygrass (Preemergence, 125 g ai/ha); 85 in the experiment on canarygrass (Preemergence, 250 g ai/ha); 45 in the experiment with barley, winter (Preemergence, 125 g ai/ha); 55 in the experiment on barley, winter (Preemergence, 250 g ai/ha). Further, the “Plant response rating, Barley, Winter” value in the experiment on barley, winter (Preemergence, 62 g ai/ha) was found to be 0; with barley, winter (Preemergence, 31 g ai/ha), 0.
As for `O=C1NCCC1C(=O)N(c1ccc(F)c(F)c1)c1ccccc1F` (stereo not shown) [Compound 5, N-(3,4-difluorophenyl)-N-(2-fluorophenyl)-2-oxo-3-pyrrolidinecarboxamide], the “Plant response rating, Bromegrass, Downy” value came to 0 in the experiment on bromegrass, downy (setting [1]); 0 with bromegrass, downy (setting [2]); 0 in the experiment on bromegrass, downy (setting [4]). For the same compound, in the experiment on bromegrass, downy (setting [3]), the “Bromegrass, Downy plant response rating” value is reported as 0. Further, the “Plant response rating, Cocklebur” value in the experiment on cocklebur (setting [1]), in the experiment with cocklebur (setting [2]) and in the experiment with cocklebur (setting [4]) was 0 throughout. In addition, the “Cocklebur plant response rating” value in the experiment on cocklebur (setting [3]) is 0.
For `O=C1NCC(c2cc(F)c(F)c(F)c2)C1C(=O)Nc1cccc(F)c1F` (stereo not shown) [Compound 48], the “Plant response rating, Bromegrass, Downy” value in the experiment on bromegrass, downy (setting [5]) was determined as 0; with bromegrass, downy (setting [6]) it was 0; in the experiment on bromegrass, downy (setting [7]) it was 0; in the experiment with bromegrass, downy (setting [8]) it was 0; with bromegrass, downy (setting [1]), 0; in the experiment with bromegrass, downy (setting [2]), 0. In addition, the “Plant response rating, Bromegrass, Downy” value in the experiment on bromegrass, downy (setting [9]) is 0. The “Bromegrass, Downy plant response rating” value in the experiment with bromegrass, downy (setting [3]) turned out to be 0. Besides, the “Plant response rating, Cocklebur” value was found to be 0 with cocklebur (setting [5]); 5 in the experiment on cocklebur (setting [6]); 10 with cocklebur (setting [7]); 10 in the experiment on cocklebur (setting [8]); 0 in the experiment with cocklebur (setting [1]); 5 with cocklebur (setting [2]). Besides, in the experiment on cocklebur (setting [9]), the “Plant response rating, Cocklebur” value is listed as 0. The “Cocklebur plant response rating” value with cocklebur (setting [3]) is on record as 0.
As to `O=C1NCC(c2ccc(F)c(Cl)c2)C1C(=O)Nc1ccccc1F` (stereo not shown) [Compound 60], the “Plant response rating, Bromegrass, Downy” value worked out at 0 in the experiment with bromegrass, downy (setting [6]); 0 in the experiment on bromegrass, downy (setting [7]); 5 in the experiment with bromegrass, downy (setting [8]); 0 in the experiment on bromegrass, downy (setting [1]); 0 with bromegrass, downy (setting [2]). For the same compound, in the experiment with bromegrass, downy (setting [3]), the “Bromegrass, Downy plant response rating” value stood at 0. The “Plant response rating, Cocklebur” value in the experiment on cocklebur (setting [6]), in the experiment on cocklebur (setting [7]), in the experiment on cocklebur (setting [8]), with cocklebur (setting [1]) and in the experiment on cocklebur (setting [2]) was 0 throughout.
As to `O=C1NCC(c2cccc(OC(F)(F)F)c2)C1C(=O)Nc1ccccc1F` (stereo not shown) [Compound 69], the “Bromegrass, Downy plant response rating” value in the experiment with bromegrass, downy (setting [10]) came to 0. For the same compound, the “Plant response rating, Bromegrass, Downy” value in the experiment on bromegrass, downy (setting [1]) is 0; in the experiment on bromegrass, downy (setting [2]), 0. In addition, the “Plant response rating (scale of 0 to 100), Bromegrass, Downy” value in the experiment with bromegrass, downy (Preemergence, 250 g ai/ha) was found to be 0. Besides, the “Cocklebur plant response rating” value with cocklebur (setting [10]) is recorded as 0. Besides, the “Plant response rating (scale of 0 to 100), Cocklebur” value in the experiment with cocklebur (Preemergence, 250 g ai/ha) came to 0.
In the case of `O=C1NCC(c2ccc(C(F)(F)F)cc2)C1C(=O)Nc1ccccc1F` (stereo not shown) [Compound 231], the Plant response rating in the experiment with canarygrass (Postemergence, 31 g ai/ha) was determined as 0; in the experiment on canarygrass (Postemergence, 62 g ai/ha), 0; in the experiment on canarygrass (Postemergence, 125 g ai/ha), 0; in the experiment with canarygrass (Postemergence, 250 g ai/ha) it was 0; in the experiment on canarygrass (Preemergence, 250 g ai/ha) it was 35; with barley, winter (Postemergence, 31 g ai/ha), 0. In addition, the Plant response rating in the experiment on barley, winter (Postemergence, 62 g ai/ha) came out at 0; in the experiment with barley, winter (Postemergence, 125 g ai/ha), 0; in the experiment with barley, winter (Postemergence, 250 g ai/ha), 0; in the experiment on barley, winter (Preemergence, 250 g ai/ha) it was 20. The “Plant response rating, Canarygrass” value was 15 with canarygrass (Preemergence, 62 g ai/ha); 20 in the experiment with canarygrass (Preemergence, 125 g ai/ha); 0 in the experiment with canarygrass (Preemergence, 31 g ai/ha). Moreover, the “Plant response rating, Barley, Winter” value in the experiment on barley, winter (Preemergence, 62 g ai/ha) was 0; in the experiment with barley, winter (Preemergence, 125 g ai/ha), 0; in the experiment on barley, winter (Preemergence, 31 g ai/ha), 0.
